{"source": "patent US8952181B2", "about": "“Organic semiconductive material precursor containing dithienobenzodithiophene derivative, ink, insulating member, charge-transporting member, and organic electronic device” (Ricoh Company, Ltd., priority 2010, dated 2015)", "key": {"[1]": {"assay": "TG-DTA thermal analysis (elimination of X-Y on heating)", "format": "physicochemical", "conditions": "temperature increase rate 5° C./min", "method": "A TG-DTA measurement with respect to Example Compound 1 was performed using TG/DTA200 (manufactured by Seiko Instruments is Inc.). […] This was identical with the melting point of the following Example Compound 1-2 described in Japanese Patent Application Laid-Open (JP-A) No. 2011-44686."}, "[2]": {"assay": "Solubility in organic solvents", "format": "physicochemical", "method": "The solubility test of Example Compound 1-2 of Example 1 was performed by dissolving Example Compound 1-2 respectively in THF, chloroform, toluene, xylene, mesitylene, diethyl ether, dichloromethane, and ethanol. Example Compound 1-2 was not dissolved in any of the above-described solvents, and cannot form a film by various printing methods."}, "[3]": {"conditions": "solvent such as THF, toluene, chloroform, xylene, diethyl ether, or dichloromethane"}}, "data": [{"smiles": "O=C(CC(F)(F)F)OC(Cc1ccccc1)c1cc2sc3cc4c(cc3c2s1)sc1cc(C(Cc2ccccc2)OC(=O)CC(F)(F)F)sc14", "note": "(centres unmarked) [Example Compound 3]", "values": [{"measurement": "mass reduction, found value", "setting": "[1]", "value": 32.6, "unit": "%"}]}, {"smiles": "Cc1ccc(-c2ccc(CC(O)c3cc4sc5cc6c(cc5c4s3)sc3cc(C(O)Cc4ccc(-c5ccc(C)cc5)cc4)sc36)cc2)cc1", "note": "(centres unmarked) [Example Compound 17]", "values": [{"measurement": "mass reduction, found value", "setting": "[1]", "value": 4.0, "unit": "%"}, {"measurement": "solubility in solvent", "setting": "[2]; solvent such as THF or toluene", "value": "easily dissolved"}]}, {"smiles": "CCCCCC(=O)OC(Cc1ccc(-c2ccc(C)cc2)cc1)c1cc2sc3cc4c(cc3c2s1)sc1cc(C(Cc2ccc(-c3ccc(C)cc3)cc2)OC(=O)CCCCC)sc14", "note": "(centres unmarked) [Example Compound 18]", "values": [{"measurement": "mass reduction, found value", "setting": "[1]", "value": 24.2, "unit": "%"}, {"measurement": "solubility in solvent", "setting": "[2]; [3]", "value": "easily dissolved"}]}, {"smiles": "CC(C)(C)C(=O)OC(Cc1ccccc1)c1cc2sc3cc4c(cc3c2s1)sc1cc(C(Cc2ccccc2)OC(=O)C(C)(C)C)sc14", "note": "(centres unmarked) [Example Compound 1]", "values": [{"measurement": "mass reduction, found value", "setting": "[1]", "value": 29.7, "unit": "%"}, {"measurement": "solubility in solvent", "setting": "[2]; [3]", "value": "easily dissolved"}]}, {"smiles": "CSC(=S)OC(Cc1ccc(C)cc1)c1cc2sc3cc4c(cc3c2s1)sc1cc(C(Cc2ccc(C)cc2)OC(=S)SC)sc14", "note": "(centres unmarked) [Example Compound 23]", "values": [{"measurement": "solubility in solvent", "setting": "[2]; solvent such as THF, toluene, chloroform, xylene, or dichloromethane", "value": "easily dissolved"}]}, {"smiles": "CCOC(=O)CC(=O)OC(Cc1ccccc1)c1cc2sc3cc4c(cc3c2s1)sc1cc(C(Cc2ccccc2)OC(=O)CC(=O)OCC)sc14", "note": "(centres unmarked) [Example Compound 13]", "values": [{"measurement": "mass reduction, found value", "setting": "[1]", "value": 35.5, "unit": "%"}, {"measurement": "solubility in solvent", "setting": "[2]; [3]", "value": "easily dissolved"}]}, {"smiles": "CCCCCC(=O)OC(Cc1ccc(C)cc1)c1cc2sc3cc4c(cc3c2s1)sc1cc(C(Cc2ccc(C)cc2)OC(=O)CCCCC)sc14", "note": "(centres unmarked) [Example Compound 4]", "values": [{"measurement": "mass reduction, found value", "setting": "[1]", "value": 30.0, "unit": "%"}]}, {"smiles": "CCCCCOC(=O)OC(Cc1ccccc1)c1cc2sc3cc4c(cc3c2s1)sc1cc(C(Cc2ccccc2)OC(=O)OCCCCC)sc14", "note": "(centres unmarked) [Example Compound 11]", "values": [{"measurement": "mass reduction, found value", "setting": "[1]", "value": 33.3, "unit": "%"}, {"measurement": "solubility in solvent", "setting": "[2]; [3]", "value": "easily dissolved"}]}, {"smiles": "CCCCCCc1ccc(CC(O)c2cc3sc4cc5c(cc4c3s2)sc2cc(C(O)Cc3ccc(CCCCCC)cc3)sc25)cc1", "note": "(centres unmarked) [Example Compound 7]", "values": [{"measurement": "mass reduction, found value", "setting": "[1]", "value": 4.0, "unit": "%"}]}, {"smiles": "CC(=O)OC(Cc1ccc(C)cc1)c1cc2sc3cc4c(cc3c2s1)sc1cc(C(Cc2ccc(C)cc2)OC(C)=O)sc14", "note": "(centres unmarked) [Example Compound 5]", "values": [{"measurement": "mass reduction, found value", "setting": "[1]", "value": 17.9, "unit": "%"}]}, {"smiles": "CCCCCCc1ccc(CC(OC(=O)C(C)=O)c2cc3sc4cc5c(cc4c3s2)sc2cc(C(Cc3ccc(CCCCCC)cc3)OC(=O)C(C)=O)sc25)cc1", "note": "(centres unmarked) [Example Compound 16]", "values": [{"measurement": "mass reduction, found value", "setting": "[1]", "value": 21.1, "unit": "%"}, {"measurement": "solubility in solvent", "setting": "[2]; [3]", "value": "easily dissolved"}]}, {"smiles": "CCCCCCc1ccc(CC(OC(C)=O)c2cc3sc4cc5c(cc4c3s2)sc2cc(C(Cc3ccc(CCCCCC)cc3)OC(C)=O)sc25)cc1", "note": "(centres unmarked) [Example Compound 6]", "values": [{"measurement": "mass reduction, found value", "setting": "[1]", "value": 15.1, "unit": "%"}]}, {"smiles": "O=C(CCC(F)(F)F)OC(Cc1ccccc1)c1cc2sc3cc4c(cc3c2s1)sc1cc(C(Cc2ccccc2)OC(=O)CCC(F)(F)F)sc14", "note": "(centres unmarked) [Example Compound 15]", "values": [{"measurement": "mass reduction, found value", "setting": "[1]", "value": 34.3, "unit": "%"}, {"measurement": "solubility in solvent", "setting": "[2]; [3]", "value": "easily dissolved"}]}, {"smiles": "C(=C\\c1cc2sc3cc4c(cc3c2s1)sc1cc(/C=C/c2ccccc2)sc14)/c1ccccc1", "note": "[Example Compound 1-2]", "values": [{"measurement": "solubility test", "setting": "[2]; THF, chloroform, toluene, xylene, mesitylene, diethyl ether, dichloromethane, and ethanol", "value": "not dissolved"}]}, {"smiles": "CC(=O)CC(=O)OC(Cc1ccccc1)c1cc2sc3cc4c(cc3c2s1)sc1cc(C(Cc2ccccc2)OC(=O)CC(C)=O)sc14", "note": "(centres unmarked) [Example Compound 24]", "values": [{"measurement": "mass reduction, found value", "setting": "[1]", "value": 25.7, "unit": "%"}, {"measurement": "solubility in solvent", "setting": "[2]; [3]", "value": "easily dissolved"}]}, {"smiles": "CCCCCC(=O)OC(Cc1ccccc1)c1cc2sc3cc4c(cc3c2s1)sc1cc(C(Cc2ccccc2)OC(=O)CCCCC)sc14", "note": "(centres unmarked) [Example Compound 2]", "values": [{"measurement": "mass reduction, found value", "setting": "[1]", "value": 31.4, "unit": "%"}, {"measurement": "solubility in solvent", "setting": "[2]; [3]", "value": "easily dissolved"}]}, {"smiles": "O=C(CCl)OC(Cc1ccccc1)c1cc2sc3cc4c(cc3c2s1)sc1cc(C(Cc2ccccc2)OC(=O)CCl)sc14", "note": "(centres unmarked) [Example Compound 14]", "values": [{"measurement": "mass reduction, found value", "setting": "[1]", "value": 26.6, "unit": "%"}, {"measurement": "solubility in solvent", "setting": "[2]; [3]", "value": "easily dissolved"}]}, {"smiles": "COC(Cc1ccccc1)c1cc2sc3cc4c(cc3c2s1)sc1cc(C(Cc2ccccc2)OC)sc14", "note": "(centres unmarked) [Example Compound 12]", "values": [{"measurement": "mass reduction, found value", "setting": "[1]", "value": 13.9, "unit": "%"}, {"measurement": "solubility in solvent", "setting": "[2]; [3]", "value": "easily dissolved"}]}]}
